Experiment in all cases: Glasshouse assay for herbicidal activity (pre- and post-emergence), percentage phytotoxicity
Common to all, as to format: in vivo

The subject of test [1] is Echinochloa crus-galli (ECHCG). To be noted: Echinochloa crus-galli. A digest of the protocol:
(§1)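 Pot-grown plants treated one day after sowing (pre-emergence) or at about 12 days (post-emergence); glasshouse at 24/18° C (warm) or 20/16° C (cool species) day/night, 16 h light, 65% humidity. Visual % phytotoxicity (0 = none, 100 = total damage) scored at 15 DAA post or 20 DAA pre.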

A further test has as its system Lolium perenne (LOLPE). To be noted: Lolium perenne. Summed up:
as §1

In test [2] the test system is Alopecurus myosuroides (ALOMY). To be noted: Alopecurus myosuroides. Summed up: as §1
The subject of the next test is Avena fatua (AVEFA). Conditions: Avena fatua. A digest of the protocol: as §1
Where [3] appears, read: post-emergence, 360 h, Rate 250 g/ha, post-emergence, assessed visually 15 DAA, 100%=total damage, 0%=no damage, read-out: Post-emergence herbicidal activity (percentage phytotoxicity) ECHCG POST.
The mark [4] stands for this setting: pre-emergence, 480 h, Rate 250 g/ha, pre-emergence, assessed visually 20 DAA, 100%=total damage, 0%=no damage, read-out: Pre-emergence herbicidal activity (percentage phytotoxicity) ECHCG PRE.
Setting [5] is: post-emergence, 360 h, Rate 250 g/ha, post-emergence, assessed visually 15 DAA, 100%=total damage, 0%=no damage, read-out: Post-emergence herbicidal activity (percentage phytotoxicity) LOLPE POST.
Setting [6] is: pre-emergence, 480 h, Rate 250 g/ha, pre-emergence, assessed visually 20 DAA, 100%=total damage, 0%=no damage, read-out: Pre-emergence herbicidal activity (percentage phytotoxicity) LOLPE PRE.
The mark [7] stands for this setting: post-emergence, 360 h, Rate 250 g/ha, post-emergence, assessed visually 15 DAA, 100%=total damage, 0%=no damage, read-out: Post-emergence herbicidal activity (percentage phytotoxicity) ALOMY POST.
[8] abbreviates: pre-emergence, 480 h, Rate 250 g/ha, pre-emergence, assessed visually 20 DAA, 100%=total damage, 0%=no damage, read-out: Pre-emergence herbicidal activity (percentage phytotoxicity) ALOMY PRE.
Where [9] appears, read: post-emergence, 360 h, Rate 250 g/ha, post-emergence, assessed visually 15 DAA, 100%=total damage, 0%=no damage, read-out: Post-emergence herbicidal activity (percentage phytotoxicity) AVEFA POST.
Setting [10] is: pre-emergence, 480 h, Rate 250 g/ha, pre-emergence, assessed visually 20 DAA, 100%=total damage, 0%=no damage, read-out: Pre-emergence herbicidal activity (percentage phytotoxicity) AVEFA PRE.
[11] abbreviates: post-emergence, 360 h, POST-emergence, rate 250 g/ha, visual score 15 DAA (100%=total damage, 0%=no damage), read-out: Post-emergence herbicidal activity (percentage phytotoxicity) ECHCG POST.
The mark [12] stands for this setting: pre-emergence, 480 h, PRE-emergence, rate 250 g/ha, visual score 20 DAA (100%=total damage, 0%=no damage), read-out: Pre-emergence herbicidal activity (percentage phytotoxicity) ECHCG PRE.
[13] abbreviates: post-emergence, 360 h, POST-emergence, rate 250 g/ha, visual score 15 DAA (100%=total damage, 0%=no damage), read-out: Post-emergence herbicidal activity (percentage phytotoxicity) LOLPE POST.
The mark [14] stands for this setting: pre-emergence, 480 h, PRE-emergence, rate 250 g/ha, visual score 20 DAA (100%=total damage, 0%=no damage), read-out: Pre-emergence herbicidal activity (percentage phytotoxicity) LOLPE PRE.
[15] abbreviates: post-emergence, 360 h, POST-emergence, rate 250 g/ha, visual score 15 DAA (100%=total damage, 0%=no damage), read-out: Post-emergence herbicidal activity (percentage phytotoxicity) ALOMY POST.
The mark [16] stands for this setting: pre-emergence, 480 h, PRE-emergence, rate 250 g/ha, visual score 20 DAA (100%=total damage, 0%=no damage), read-out: Pre-emergence herbicidal activity (percentage phytotoxicity) ALOMY PRE.
[17] abbreviates: post-emergence, 360 h, POST-emergence, rate 250 g/ha, visual score 15 DAA (100%=total damage, 0%=no damage), read-out: Post-emergence herbicidal activity (percentage phytotoxicity) AVEFA POST.
Setting [18] is: pre-emergence, 480 h, PRE-emergence, rate 250 g/ha, visual score 20 DAA (100%=total damage, 0%=no damage), read-out: Pre-emergence herbicidal activity (percentage phytotoxicity) AVEFA PRE.

Read-outs that look alike come from different tables or passages of the source.

On to `Cc1cc(-c2ncc(F)cn2)cc(C)c1C1C(=O)CC(CC(=O)NCC(C)(C)C)C1=O` (centres unmarked) [Compound B109], for which the pest or weed control at 63 g/ha was 90% in test [1] (post-emergence, 360 h, post-emergence, 15 DAA, read-out: Post-emergence herbicidal activity (percentage phytotoxicity) ECHCG POST); 80% in test [1] (pre-emergence, 480 h, pre-emergence, 20 DAA, read-out: Pre-emergence herbicidal activity (percentage phytotoxicity) ECHCG PRE); 70% in the test with Lolium perenne (LOLPE) (post-emergence, 360 h, post-emergence, 15 DAA, read-out: Post-emergence herbicidal activity (percentage phytotoxicity) LOLPE POST); 60% in the test with Lolium perenne (LOLPE) (pre-emergence, 480 h, pre-emergence, 20 DAA, read-out: Pre-emergence herbicidal activity (percentage phytotoxicity) LOLPE PRE); 20% in test [2] (post-emergence, 360 h, post-emergence, 15 DAA, read-out: Post-emergence herbicidal activity (percentage phytotoxicity) ALOMY POST); 70% in test [2] (pre-emergence, 480 h, pre-emergence, 20 DAA, read-out: Pre-emergence herbicidal activity (percentage phytotoxicity) ALOMY PRE). For the same compound, the pest or weed control at 63 g/ha in the test on Avena fatua (AVEFA) (post-emergence, 360 h, post-emergence, 15 DAA, read-out: Post-emergence herbicidal activity (percentage phytotoxicity) AVEFA POST) was 80%; with Avena fatua (AVEFA) (pre-emergence, 480 h, pre-emergence, 20 DAA, read-out: Pre-emergence herbicidal activity (percentage phytotoxicity) AVEFA PRE), 100%.

Consider `Cc1cc(C)c(C2CC(=O)C(CC(=O)NC(C)CC(C)C)C2=O)c(C)c1` (centres unmarked) [Compound B25], for which the pest or weed control at 250 g/ha in test [1] (post-emergence, 360 h, 250 g/ha, post-emergence, 15 DAA, visual assessment (100%=total damage, 0%=no damage), read-out: Post-emergence herbicidal activity (percentage phytotoxicity) ECHCG POST) stood at 90%; in test [1] (pre-emergence, 480 h, 250 g/ha, pre-emergence, 20 DAA, visual assessment (100%=total damage, 0%=no damage), read-out: Pre-emergence herbicidal activity (percentage phytotoxicity) ECHCG PRE) it was 90%; in the test on Lolium perenne (LOLPE) (post-emergence, 360 h, 250 g/ha, post-emergence, 15 DAA, visual assessment (100%=total damage, 0%=no damage), read-out: Post-emergence herbicidal activity (percentage phytotoxicity) LOLPE POST), 80%; in the test on Lolium perenne (LOLPE) (pre-emergence, 480 h, 250 g/ha, pre-emergence, 20 DAA, visual assessment (100%=total damage, 0%=no damage), read-out: Pre-emergence herbicidal activity (percentage phytotoxicity) LOLPE PRE) it was 90%; in test [2] (post-emergence, 360 h, 250 g/ha, post-emergence, 15 DAA, visual assessment (100%=total damage, 0%=no damage), read-out: Post-emergence herbicidal activity (percentage phytotoxicity) ALOMY POST) it was 80%; in test [2] (pre-emergence, 480 h, 250 g/ha, pre-emergence, 20 DAA, visual assessment (100%=total damage, 0%=no damage), read-out: Pre-emergence herbicidal activity (percentage phytotoxicity) ALOMY PRE) it was 90%. Also, the pest or weed control at 250 g/ha was 80% in the test with Avena fatua (AVEFA) (post-emergence, 360 h, 250 g/ha, post-emergence, 15 DAA, visual assessment (100%=total damage, 0%=no damage), read-out: Post-emergence herbicidal activity (percentage phytotoxicity) AVEFA POST) and 70% in the test on Avena fatua (AVEFA) (pre-emergence, 480 h, 250 g/ha, pre-emergence, 20 DAA, visual assessment (100%=total damage, 0%=no damage), read-out: Pre-emergence herbicidal activity (percentage phytotoxicity) AVEFA PRE).

Take `Cc1cc(C)c(C2C(=O)CC(CC(=O)NC3CCc4ccccc43)C2=O)c(C)c1` (centres unmarked) [Compound A106]: the pest or weed control at 250 g/ha in test [1] (setting [3]) was determined as 20%; in test [1] (setting [4]), 20%; in the test on Lolium perenne (LOLPE) (setting [5]) it was 70%; with Lolium perenne (LOLPE) (setting [6]) it was 70%; in test [2] (setting [7]), 30%; in test [2] (setting [8]), 0%. The pest or weed control at 250 g/ha in the test on Avena fatua (AVEFA) (setting [9]) and in the test with Avena fatua (AVEFA) (setting [10]) was 0% in each case.

For the compound `CCc1cc(-n2cc(Cl)cn2)cc(C)c1C1C(=O)CC(CC(=O)N(C)CC)C1=O` (centres unmarked) [Compound B238], the pest or weed control at 250 g/ha (in test [1] (setting [11]); in test [1] (setting [12]); in the test on Lolium perenne (LOLPE) (setting [13]); in the test with Lolium perenne (LOLPE) (setting [14]); in test [2] (setting [15]); in test [2] (setting [16])) was 100% each time. Further, the pest or weed control at 250 g/ha with Avena fatua (AVEFA) (setting [17]) and in the test on Avena fatua (AVEFA) (setting [18]) was 100% each time.

For `C=Cc1cc(-c2ncc(F)cc2F)cc(C)c1C1C(=O)CC(CC(=O)NC(C)(C)C)C1=O` (centres unmarked) [Compound B382, N-tert-butyl-2-[3-[4-(3,5-difluoro-2-pyridyl)-2-methyl-6-vinyl-phenyl]-2,4-dioxo-cyclopentyl]acetamide], the pest or weed control at 250 g/ha came to 100% in test [1] (post-emergence, 360 h, Rate 250 g/ha, post-emergence, visual assessment 15 DAA, 100%=total damage, 0%=no damage, read-out: Post-emergence herbicidal activity (percentage phytotoxicity) ECHCG POST); 60% in test [1] (pre-emergence, 480 h, Rate 250 g/ha, pre-emergence, visual assessment 20 DAA, 100%=total damage, 0%=no damage, read-out: Pre-emergence herbicidal activity (percentage phytotoxicity) ECHCG PRE); 100% in the test with Lolium perenne (LOLPE) (post-emergence, 360 h, Rate 250 g/ha, post-emergence, visual assessment 15 DAA, 100%=total damage, 0%=no damage, read-out: Post-emergence herbicidal activity (percentage phytotoxicity) LOLPE POST); 60% in the test with Lolium perenne (LOLPE) (pre-emergence, 480 h, Rate 250 g/ha, pre-emergence, visual assessment 20 DAA, 100%=total damage, 0%=no damage, read-out: Pre-emergence herbicidal activity (percentage phytotoxicity) LOLPE PRE); 100% in test [2] (post-emergence, 360 h, Rate 250 g/ha, post-emergence, visual assessment 15 DAA, 100%=total damage, 0%=no damage, read-out: Post-emergence herbicidal activity (percentage phytotoxicity) ALOMY POST); 60% in test [2] (pre-emergence, 480 h, Rate 250 g/ha, pre-emergence, visual assessment 20 DAA, 100%=total damage, 0%=no damage, read-out: Pre-emergence herbicidal activity (percentage phytotoxicity) ALOMY PRE). Moreover, the pest or weed control at 250 g/ha in the test on Avena fatua (AVEFA) (post-emergence, 360 h, Rate 250 g/ha, post-emergence, visual assessment 15 DAA, 100%=total damage, 0%=no damage, read-out: Post-emergence herbicidal activity (percentage phytotoxicity) AVEFA POST) stood at 100%; in the test on Avena fatua (AVEFA) (pre-emergence, 480 h, Rate 250 g/ha, pre-emergence, visual assessment 20 DAA, 100%=total damage, 0%=no damage, read-out: Pre-emergence herbicidal activity (percentage phytotoxicity) AVEFA PRE) it was 40%.

For `C/C=C/c1cc(C)c(C2C(=O)CC(CC(=O)N(C)C(C)(C)C)C2=O)c(CC)c1` (centres unmarked) [Compound B274], the pest or weed control at 250 g/ha in test [1] (setting [11]) stood at 100%; in test [1] (setting [12]), 70%; in the test on Lolium perenne (LOLPE) (setting [13]) it was 90%; in the test on Lolium perenne (LOLPE) (setting [14]), 70%; in test [2] (setting [15]) it was 100%; in test [2] (setting [16]) it was 70%. Also, the pest or weed control at 250 g/ha in the test with Avena fatua (AVEFA) (setting [17]) turned out to be 100%; with Avena fatua (AVEFA) (setting [18]) it was 50%.

In the case of `Cc1ccc(-c2cc(C)c(C3C(=O)CC(CC(=O)NCc4cccc(C(F)(F)F)c4)C3=O)c(C)c2)nc1` (centres unmarked) [Compound A158], the pest or weed control at 250 g/ha was 90% in test [1] (setting [3]); 80% in test [1] (setting [4]); 80% in the test with Lolium perenne (LOLPE) (setting [5]); 60% in the test with Lolium perenne (LOLPE) (setting [6]); 70% in test [2] (setting [7]); 20% in test [2] (setting [8]). For the same compound, the pest or weed control at 250 g/ha with Avena fatua (AVEFA) (setting [9]) came to 70%; in the test with Avena fatua (AVEFA) (setting [10]), 20%.
